Measured values published in patent US11623931B2, “Bicyclic compounds for diagnosis and therapy” (AC IMMUNE SA, priority 2016, dated 2023).

How the values were obtained:
Set-up in all cases: key: − (No); +/− (very weak); + (weak); ++ (good); +++ (strong)
[1] = target: T1, aSyn aggregates on PD sections (Homo sapiens, UniProt P37840); experiment: Assay 1 (fluorescence based assay): direct staining of human Parkinson's disease brain sections; type: binding; conditions: staining intensity; compound 100 μM, frozen amygdala sections, PD Braak stage V-VI
T1 construct: 20 μm frozen sections from amygdala were purchased from an external provider (Tissue Solutions Ltd.); tissue Tissue Solutions Ltd; host or cells: human PD amygdala, frozen sections, Braak stage V-VI
From the text: Assay 1 (Fluorescence Based Assay):
(§1) Direct Staining of Compounds of this Invention to Human Parkinson's Disease Brain Sections
(§2) 20 μm frozen sections from amygdala were purchased from an external provider (Tissue Solutions Ltd.). Donors were diagnosed with PD, Braak stage V-VI (Braak et al., Neurobiol. Aging, 2003, 24, 197-211) and thus with confirmed aSyn pathology. PD donors, Braak stage V-VI with mixed pathology, containing aSyn aggregates as well as Aβ plaques, were also used in this assay. Sections were kept at −80° C. until start of the experiment.
(§3) Brain sections were encircled with pap pen liquid blocker to reduce the volume of solution for the different incubations. Sections were fixed for 15 min at 4° C. with 4% paraformaldehyde and washed three times for 5 minutes with PBS (phosphate buffered saline) at room temperature. Test compounds were incubated on the sections at 100 μM in 50% ethanol in water for 30 min at room temperature, followed by three washes of 5 minutes with PBS. Sections were then saturated and permeabilized in blocking buffer (PBS, 10% NGS, 0.25% Triton) for 1 hour at room temperature and then incubated for 2 hours at room temperature with the primary antibodies against aSyn: aSyn-211 (SantaCruz Biotechnology sc-12767) or aSyn-pS129 (Abcam AB51253), and primary antibody against AR, 4G8, (Covance, SIG-39220). All primary antibodies diluted 1/250 in PBS, 5% NGS, 0.25% Triton. After three washes in PBS, the sections were incubated for 30 minutes at room temperature with a secondary anti-mouse antibody labeled with AlexaFluor555 (Invitrogen A21422) or anti-rabbit antibody labeled with AlexaFluor555 (Invitrogen A21428) and further washed three times in PBS. To reduce auto-fluorescence of the tissue, the sections were incubated in a solution of 0.1% Sudan Black (Sigma 199664) in 70% ethanol for 15 min at room temperature, followed by four washes with PBS and mounted under cover slips using ProLong Gold Antifade reagent (Invitrogen P36930).
(§4) Sections were analyzed on the Nikon Eclipse Ti microscope to detect staining and imaged using Nikon DS-Fi2 camera and NIS-Element AR4.13.1 software.

[2] = system: Aβ plaques on PD sections with mixed pathology; experiment: Assay 1 (fluorescence based assay): direct staining of PD brain sections with mixed pathology; type: binding, human; conditions: staining intensity; compound 100 μM, frozen amygdala sections, PD Braak stage V-VI with aSyn aggregates and Aβ plaques
Method: as §1, §2, §3, §4

[3] = system: Aβ plaques on AD sections; experiment: Assay 1 (fluorescence based assay): direct staining of human Alzheimer's disease brain sections; type: binding; conditions: staining intensity; compound 100 μM, frozen amygdala sections, AD Braak stage V-VI
Method: Direct Staining of Compounds of this Invention to Human Alzheimer's Disease Brain Sections 20 μm frozen sections from amygdala were purchased from an external provider (Tissue Solutions Ltd.). Donors were diagnosed with AD, Braak stage V-VI (Braak et al., Neurobiol. Aging, 1995, 16, 271-284) and thus with confirmed Aβ pathology. Sections were kept at −80° C. until start of the experiment. Brain sections were encircled with pap pen liquid blocker to reduce the volume of solution for the different incubations. Sections were fixed for 15 min at 4° C. with 4% paraformaldehyde and washed three times for 5 minutes with PBS at room temperature. Test compounds were incubated on the sections at 100 μM in 50% ethanol in water for 30 min at room temperature, followed by three washes of 5 minutes with PBS. Sections were then saturated and permeabilized in blocking buffer (PBS, 10% NGS, 0.25% Triton) for 1 hour at room temperature and then incubated for 2 hours at room temperature with the primary antibodies against AR, 4G8, (Covance, SIG-39220), diluted 1/250 in PBS, 5% NGS, and 0.25% Triton. After three washes in PBS, the sections were incubated for 30 minutes at room temperature with a secondary anti-mouse antibody labeled with AlexaFluor555 (Invitrogen A21422) and further washed three times in PBS. To reduce auto-fluorescence of the tissue, the sections were incubated in a solution of 0.1% Sudan Black (Sigma 199664) in 70% ethanol for 15 min at room temperature, followed by four washes with PBS and mounted under cover slips using ProLong Gold Antifade reagent (Invitrogen P36930). Sections were analyzed on the Nikon Eclipse Ti microscope to detect staining and imaged using Nikon DS-Fi2 camera and NIS-Element AR4.13.1 software.

Row | SMILES | Staining of aSyn aggregates on PD sections [1] | Staining of Aβ plaques on PD sections with mixed pathology [2] | Staining of Aβ plaques on AD sections [3]
1 | O=C1c2sc(-c3ccc(N4CC[C@H](F)C4)nc3)nc2CCN1c1cccnc1 [Example 130] | ++ | +++ | 
2 | Nc1ccc(-c2cc3ccc(-c4ccc(F)nc4)nc3s2)cn1 [Example 105] | +++ | ++ | 
3 | Cc1n[nH]c(C)c1-c1ccc2sc(-c3ccc(N4CCCC4)nc3F)nc2n1 [Example 88] | +++ | − | 
4 | F[C@H]1CCCN(c2ccc(-c3nc4ncc(-c5cccnc5)cc4s3)cn2)C1 [Example 101] | ++ | + | 
5 | F[C@H]1CCN(c2ccc(-c3nc4nc(-c5cccnc5)ccc4s3)cn2)C1 [Example 91] | ++ | − | 
6 | Cn1cc(-c2ccc3sc(-c4ccc(N5CCC[C@H](F)C5)nc4)nc3n2)cn1 [Example 84] | ++ | +/− | 
7 | O=C1COCCN1c1ccc2nc(-c3cnn(CCF)c3)sc2c1 [Example 125] | + | + | 
8 | Fc1nc(N2CCCC2)ccc1-c1ccc2cc(-c3cncnc3)sc2n1 [Example 110] | + | +++ | 
9 | F[C@@H]1CCCN(c2ccc(-c3nc4ncc(N5CCOCC5)cc4s3)cn2)C1 [Example 123] | + | + | 
10 | F[C@@H]1CCN(c2ccc(-c3ccc4cc(-c5cn[nH]c5)sc4n3)cn2)C1 [Example 114] | +++ | +++ | 
11 | Cn1nccc1-c1ccc2sc(-c3ccc(N4CCCC4)nc3F)nc2n1 [Example 97] | + | +/− | 
12 | F[C@H]1CCCN(c2ccc(-c3nc4nc(-c5cn[nH]c5)ccc4s3)cn2)C1 [Example 83] | +++ | − | 
13 | Fc1nc(N2CCCC2)ccc1-c1nc2nc(-c3cnc[nH]3)ccc2s1 [Example 95] | ++ | − | 
14 | N#Cc1ccc2sc(-c3ccc(N4CCCC4)nc3F)nc2n1 [Example 131] | ++ | +++ | 
15 | CNc1ccc(-c2cc3ccc(-c4ccc(N5CC[C@@H](F)C5)nc4)nc3s2)cc1F [Example 111] | +++ | +++ | 
16 | c1cncc(-c2ccc3sc(-c4ccc(N5CCCC5)nc4)nc3n2)c1 [Example 89] | ++ | − | 
17 | Fc1nc(N2CCCC2)ccc1-c1nc2nc(-c3cn[nH]c3)ccc2s1 [Example 85] | +++ | − | 
18 | FCCOC1CCN(c2ccc3cc(-c4cccnc4)sc3n2)CC1 [Example 67] | + |  | +
19 | c1cncc(-c2cc3ncc(-c4ccc(N5CCCC5)nc4)cc3s2)c1 [Example 18] | +++ |  | +++
20 | CNc1ccc(-c2cc3ccc(-c4ccc(OCCF)cc4)nc3s2)cc1 [Example 10] | + |  | +++
21 | c1cncc(-c2cc3nc(-c4ccc(N5CCCC5)nc4)sc3cn2)c1 [Example 24] | ++ |  | +

Row | SMILES | Staining of aSyn aggregates on PD sections [1] | Staining of Aβ plaques on PD sections with mixed pathology [2] | Staining of Aβ plaques on AD sections [3]
22 | CNc1ccc(-c2ccc3cc(-c4ccc(C#N)cn4)sc3n2)cn1 [Example 5] | + |  | +
23 | CNc1ccc(-c2cc3ccc(Nc4ccc(N5CCOCC5)cc4)nc3s2)cc1 [Example 76] | + |  | +++
24 | FCCOc1ccc(-c2cc3ccc(Nc4ccc5c(c4)OCCO5)nc3s2)cc1 [Example 58] | + |  | ++
25 | CNc1ccc(-c2ccc3cc(-c4cccc(OC)c4)sc3n2)cc1 [Example 9] | ++ |  | ++
26 | CNc1ccc(-c2ccc3cc(-c4ccnc(OC)c4)sc3n2)cc1 [Example 31] | + |  | ++
27 | c1cncc(-c2ccc3nc(-c4ccc(N5CCCC5)nc4)sc3n2)c1 [Example 38] | +++ |  | +++
28 | c1n[nH]cc1-c1cc2nc(-c3ccc(N4CCCC4)nc3)sc2cn1 [Example 25] | ++ |  | +
29 | c1cncc(-c2ccc3sc(-c4ccc(N5CCCC5)nc4)nc3c2)c1 [Example 39] | + |  | +
30 | COc1ccc(/C=C/c2ccc3cc(-c4ccc(OCCF)cc4)sc3n2)cc1 [Example 13] | ++ |  | +++
31 | O=C1COCCN1c1ccc2nc(-c3ccc(N4CCC[C@H](F)C4)nc3)sc2c1 [Example 127] | ++ |  | +
32 | FCCn1cc(-c2cc3nc(-c4ccc(N5CCCC5)nc4)sc3cn2)cn1 [Example 79] | + |  | +
33 | c1cncc(-c2cc3ccc(Nc4ccc(N5CCOCC5)cc4)nc3s2)c1 [Example 65] | + |  | +++
34 | Fc1ncccc1-c1cc2ccc(-c3ccc(N4CCCC4)nc3)nc2s1 [Example 34] | ++ |  | +++
35 | O=C1COCCN1c1ccc2nc(-c3ccc(N4CCC[C@@H](F)C4)nc3)sc2c1 [Example 126] | ++ |  | ++
36 | c1ncc(-c2cc3ccc(-c4ccc(N5CCCC5)nc4)nc3s2)cn1 [Example 35] | ++ |  | ++
37 | O=C1COCCN1c1ccc2nc(-c3ccc(N4CC[C@H](F)C4)nc3)sc2c1 [Example 73] | ++ |  | +
38 | COc1cccc(/C=C/c2ccc3cc(-c4cccnc4)sc3n2)c1 [Example 16] | ++ |  | ++
39 | O=C1c2sc(-c3ccc(N4CCCC4)nc3)nc2CCN1c1cccnc1 [Example 80] | +++ |  | ++
40 | FCCNc1ccc(-c2ccc3cc(-c4cccnc4)sc3n2)cn1 [Example 56] | ++ |  | ++
41 | Cn1cc(-c2ccc3sc(-c4ccc(N5CC[C@@H](F)C5)nc4)cc3n2)cn1 [Example 51] | ++ |  | +
